In article PMC7211203 (European Journal of Drug Metabolism and Pharmacokinetics, 2020):
Read-outs that look alike come from different tables or passages of the source.

What was measured:
CYP3A4 [1] = biological target: T1, CYP3A4 (Homo sapiens, UniProt P08684); settings: 18 patients with solid tumors; cited from earlier work
[2] = type: in vivo, human; settings: for AUC0–24 / Cmax / t1/2: mean (SD); for tmax: median (minimum, maximum)
CYP3A4 [3] = biological target: T1, CYP3A4; type: in vivo
[4] = D −3, patients of comparison D1 vs D −3
[5] = D −3, patients of comparison D14 vs D −3
[6] = Day 1, with single dose of lenvatinib
[7] = Day 14, with lenvatinib at steady state
[8] = D1 vs D −3 (single dose of lenvatinib 24 mg)
[9] = D14 vs D −3 (lenvatinib 24 mg at steady state)

T1 sequence (P08684 whole entry): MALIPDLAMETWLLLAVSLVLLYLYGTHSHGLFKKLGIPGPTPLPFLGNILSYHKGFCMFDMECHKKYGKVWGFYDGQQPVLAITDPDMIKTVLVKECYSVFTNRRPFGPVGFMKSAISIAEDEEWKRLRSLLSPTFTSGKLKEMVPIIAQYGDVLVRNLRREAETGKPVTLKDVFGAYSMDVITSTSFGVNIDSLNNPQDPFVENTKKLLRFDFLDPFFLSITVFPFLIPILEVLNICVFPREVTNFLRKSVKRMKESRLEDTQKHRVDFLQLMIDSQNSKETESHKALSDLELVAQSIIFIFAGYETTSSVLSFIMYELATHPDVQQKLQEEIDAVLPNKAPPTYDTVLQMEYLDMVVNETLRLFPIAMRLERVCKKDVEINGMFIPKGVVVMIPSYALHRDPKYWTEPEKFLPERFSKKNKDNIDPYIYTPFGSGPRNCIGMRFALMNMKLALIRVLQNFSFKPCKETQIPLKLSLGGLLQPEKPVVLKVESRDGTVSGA

## COC[C@H](NC(=O)c1cnc(C)s1)C(=O)N[C@@H](COC)C(=O)N[C@@H](Cc1ccccc1)C(=O)[C@@]1(C)CO1 [Oprozomib, oprozomib]
CYP3A4 [1]
  CYP3A4 inhibition in patients (midazolam): clinically relevant inhibition was not seen

## OCc1ncc2n1-c1ccc(Cl)cc1C(c1ccccc1F)=NC2 [1′-OH midazolam, 1′-hydroxy-midazolam]
[2]; 0.5 h, D1 1 dose of lenvatinib and midazolam
  Plasma concentration, mean (standard deviation): 10.433 (11.8436) ng/mL
[2]; 0.5 h, D14 multiple doses of lenvatinib and 1 dose of midazolam
  Plasma concentration, mean (standard deviation): 8.048 (12.1629) ng/mL
[2]; 0.5 h, D −3 midazolam only
  Plasma concentration, mean (standard deviation): 7.929 (8.1952) ng/mL
[2]; 1 h, D1 1 dose of lenvatinib and midazolam
  Plasma concentration, mean (standard deviation): 9.230 (9.8222) ng/mL
[2]; 1 h, D14 multiple doses of lenvatinib and 1 dose of midazolam
  Plasma concentration, mean (standard deviation): 8.884 (8.9281) ng/mL
[2]; 1 h, D −3 midazolam only
  Plasma concentration, mean (standard deviation): 8.259 (6.9675) ng/mL
[2]; 1.5 h, D1 1 dose of lenvatinib and midazolam
  Plasma concentration, mean (standard deviation): 8.265 (9.0440) ng/mL
[2]; 1.5 h, D14 multiple doses of lenvatinib and 1 dose of midazolam
  Plasma concentration, mean (standard deviation): 7.314 (6.7286) ng/mL
[2]; 1.5 h, D −3 midazolam only
  Plasma concentration, mean (standard deviation): 7.307 (5.9056) ng/mL
[2]; 2 h, D1 1 dose of lenvatinib and midazolam
  Plasma concentration, mean (standard deviation): 6.921 (8.0144) ng/mL
[2]; 2 h, D14 multiple doses of lenvatinib and 1 dose of midazolam
  Plasma concentration, mean (standard deviation): 5.767 (5.0953) ng/mL
[2]; 2 h, D −3 midazolam only
  Plasma concentration, mean (standard deviation): 5.736 (4.1774) ng/mL
[2]; 3 h, D1 1 dose of lenvatinib and midazolam
  Plasma concentration, mean (standard deviation): 4.888 (7.3050) ng/mL
[2]; 3 h, D14 multiple doses of lenvatinib and 1 dose of midazolam
  Plasma concentration, mean (standard deviation): 4.027 (3.2372) ng/mL
[2]; 3 h, D −3 midazolam only
  Plasma concentration, mean (standard deviation): 3.698 (2.9719) ng/mL
[2]; 4 h, D1 1 dose of lenvatinib and midazolam
  Plasma concentration, mean (standard deviation): 3.395 (5.2011) ng/mL
[2]; 4 h, D14 multiple doses of lenvatinib and 1 dose of midazolam
  Plasma concentration, mean (standard deviation): 2.919 (2.1611) ng/mL
[2]; 4 h, D −3 midazolam only
  Plasma concentration, mean (standard deviation): 2.359 (1.9899) ng/mL
[2]; 6 h, D1 1 dose of lenvatinib and midazolam
  Plasma concentration, mean (standard deviation): 2.059 (2.3381) ng/mL
[2]; 6 h, D14 multiple doses of lenvatinib and 1 dose of midazolam
  Plasma concentration, mean (standard deviation): 1.773 (1.4213) ng/mL
[2]; 6 h, D −3 midazolam only
  Plasma concentration, mean (standard deviation): 1.447 (1.4379) ng/mL
[2]; 8 h, D1 1 dose of lenvatinib and midazolam
  Plasma concentration, mean (standard deviation): 1.132 (1.0593) ng/mL
[2]; 8 h, D14 multiple doses of lenvatinib and 1 dose of midazolam
  Plasma concentration, mean (standard deviation): 1.372 (1.2790) ng/mL
[2]; 8 h, D −3 midazolam only
  Plasma concentration, mean (standard deviation): 1.024 (0.9525) ng/mL
[2]; 10 h, D1 1 dose of lenvatinib and midazolam
  Plasma concentration, mean (standard deviation): 0.852 (0.7166) ng/mL
[2]; 10 h, D14 multiple doses of lenvatinib and 1 dose of midazolam
  Plasma concentration, mean (standard deviation): 1.055 (1.0511) ng/mL
[2]; 10 h, D −3 midazolam only
  Plasma concentration, mean (standard deviation): 0.767 (0.6376) ng/mL
[2]; 24 h, D1 1 dose of lenvatinib and midazolam
  Plasma concentration, mean (standard deviation): 0.186 (0.1472) ng/mL
[2]; 24 h, D14 multiple doses of lenvatinib and 1 dose of midazolam
  Plasma concentration, mean (standard deviation): 0.282 (0.1998) ng/mL
[2]; 24 h, D −3 midazolam only
  Plasma concentration, mean (standard deviation): 0.158 (0.1110) ng/mL
[2]; D1, comparison D1 vs D −3
  AUC0–24 geometric mean, lenvatinib + midazolam (test): 37.91 ng·h/mL
  Cmax geometric mean, lenvatinib + midazolam (test): 9.54 ng/mL
[2]; D14, comparison D14 vs D −3
  AUC0–24 geometric mean, lenvatinib + midazolam (test): 36.93 ng·h/mL
  Cmax geometric mean, lenvatinib + midazolam (test): 8.24 ng/mL
[2]; [4]
  AUC0–24 geometric mean, midazolam (reference): 33.84 ng·h/mL
  Cmax geometric mean, midazolam (reference): 9.04 ng/mL
[2]; [5]
  AUC0–24 geometric mean, midazolam (reference): 30.81 ng·h/mL
  Cmax geometric mean, midazolam (reference): 8.76 ng/mL
[2]; Day 1, midazolam with single dose of lenvatinib 24 mg, n = 28
  AUC0–24: 48.6 (47.8) ng × h/mL
[2]; [6]
  Cmax: 12.7 (11.6) ng/mL
  t1/2: 5.48 (2.26) h
  tmax: 0.75 (0.25, 2.00) h
[2]; Day 14, midazolam with lenvatinib at steady state, n = 19
  AUC0–24: 41.3 (34.3) ng × h/mL
[2]; [7]
  Cmax: 10.7 (11.6) ng/mL
  t1/2: 5.53 (1.99) h
  tmax: 0.77 (0.25, 1.50) h
[2]; Day −3, midazolam 4 mg oral alone, n = 29
  AUC0–24: 38.5 (26.5) ng × h/mL
[2]; Day −3, midazolam alone
  Cmax: 11.0 (8.64) ng/mL
  t1/2: 5.58 (1.15) h
  tmax: 0.75 (0.25, 2.02) h
CYP3A4 [3]; D1 and D14 vs D −3
  Change in t1/2 when administered with lenvatinib: no statistically significant change
CYP3A4 [3]; D1 vs D −3
  Difference in median tmax: 0.00 h
CYP3A4 [3]; [8]
  AUC0–24 geometric mean ratio (test/reference): 1.120
  Cmax geometric mean ratio (test/reference): 1.055
CYP3A4 [3]; D14 vs D −3
  Difference in median tmax: 0.00 h
CYP3A4 [3]; [9]
  AUC0–24 geometric mean ratio (test/reference): 1.199
  Cmax geometric mean ratio (test/reference): 0.940
